The structures appear in SMILES notation.

For assay [1], the system named is liposarcoma cell lines FU-DDLS-1, MLS1765, T449, T778, MLS402, SW872. Put plainly: MTT cell growth assay, liposarcoma cell lines. Particulars: six liposarcoma cell lines, 72 h. In general terms: Tetrazolium dyes change colour on reduction, which living cells bring about.
Assay [2] deals with synovial sarcoma cell lines SYO-1, HS-SY-II, 1273/99, Fuji and CME-1. Put plainly: MTT cell growth assay, synovial sarcoma cell lines. The note with it: five synovial sarcoma cell lines, 72 h.
The subject of assay [3] is global H3K4 dimethylation. Put plainly: Western blot of H3K4 dimethylation in breast cancer cells. The class given is cell-based. Particulars: 10 and or 30 μM, 24 h. Here is the method:
Protein lysates were extracted from cells and blotted as described in Schulte et al. [Schulte, J. H. et al. (2009), see above] The membranes were incubated for 1-2 hours using the following antibodies and dilutions: α-LSD1 (Novus Biologicals) 1:1000; α-K4H3me2 (Abcam, Cambridge, UK) 1:1000; β-actin (Sigma-Aldrich, Hamburg, Germany) 1:5000; Her2/erbB2 (DAKO), 1:1000. […] Anal. Biochem., 295, 17-21].
(In general: A western blot detects proteins with antibodies after separation by electrophoresis.)

The test system of assay [4] is MCF7, MDA-MB 453, MDA-MB 231 and T47D breast cancer cells. Put plainly: MTT cell growth assay, breast cancer cell lines. The class given is cell-based. The note with it: four breast cancer cell lines, treatment for 72 hours. Here is the method: (§1) MCF7, MDA-MB 453 and MDA-MB 231 breast cancer cells were cultivated in DMEM, T47D breast cancer cells were cultivated in RPMI, GLC-1, GLC-2 and H460 R lung carcinoma cells were cultivated in IMDM, and sarcoma cells 1273 were cultivated in Häm's F12. All media were supplemented with 10% FCS, L-glutamine and antibiotics.
(§2) An 3-([…])-2,5-diphenyltetrazolium bromide (MTT) assay was performed according to the manufacturer's protocol (Roche, Mannheim, Germany).

Assay [5] concerns GLC-1, GLC-2 and H460 R lung carcinoma cells. Particulars: three lung carcinoma cell lines, 72 hours. Here is the method: as §1, §2
In a further assay the test system is sarcoma cells 1273. Particulars: sarcoma cell line 1273, 72 hours. As to the method: as §1, §2
The target of a further assay is LSD1 protein (Homo sapiens, UniProt O60341). Particulars: breast cancer cells, 10 and or 30 μM, 24 h. Here is the method: The membranes were incubated for 1-2 hours using the following antibodies and dilutions: α-LSD1 (Novus Biologicals) 1:1000; α-K4H3me2 (Abcam, Cambridge, UK) 1:1000; β-actin (Sigma-Aldrich, Hamburg, Germany) 1:5000; Her2/erbB2 (DAKO), 1:1000.

In the case of `N[C@@H]1C[C@H]1c1ccccc1` (racemic) [tranylcypromine], the “cell growth (MTT assay, viable cells)” value in assay [1] is given as “impaired cell growth in these sarcoma cell lines in a concentration dependent manner”; in assay [2], “impaired cell growth in these sarcoma cell lines in a concentration dependent manner”; in assay [4], “impaired cell growth in a dose-dependent manner”; in assay [5] it was “impaired cell growth”. Besides, the “global H3K4 dimethylation (Western blot)” value in assay [3] was “accumulation of H3K4 dimethylation”. For the same compound, the “cell growth (MTT assay, % viability)” value in the assay with sarcoma cells 1273 was “impaired cell growth”.
As for `C#CCN(C)CCCOc1ccc(Cl)cc1Cl` [clorgyline], the figures for the “cell growth (MTT assay, viable cells)” value in assay [1], in assay [2] and in assay [4] were “impaired cell growth in these sarcoma cell lines in a concentration dependent manner”, “impaired cell growth in these sarcoma cell lines in a concentration dependent manner” and “impaired cell growth in a dose-dependent manner”, respectively. Also, the “global H3K4 dimethylation (Western blot)” value in assay [3] is listed as “accumulation of H3K4 dimethylation”. The “LSD1 protein levels (Western blot)” value on LSD1 protein is recorded as “not affected”.
As for `C#CCN(C)Cc1ccccc1` [pargyline], the “cell growth (MTT assay, viable cells)” value in assay [1] and in assay [2] was “impaired cell growth in these sarcoma cell lines in a concentration dependent manner” in each case.

These data come from patent US20120142784A1, “LYSINE-SPECIFIC DEMETHYLASE 1(LSD1) IS A BIOMARKER FOR BREAST CANCER” (priority 2009, published 2012).
